What was measured:
[1] = biological target: T1, Capsid scaffolding protein (Human cytomegalovirus (strain AD169) (HHV-5) (Human herpesvirus 5), UniProt P16753); experiment: Inhibitory activity against cytomegalovirus protease (CMV); format: functional
T1 sequence (P16753 whole entry): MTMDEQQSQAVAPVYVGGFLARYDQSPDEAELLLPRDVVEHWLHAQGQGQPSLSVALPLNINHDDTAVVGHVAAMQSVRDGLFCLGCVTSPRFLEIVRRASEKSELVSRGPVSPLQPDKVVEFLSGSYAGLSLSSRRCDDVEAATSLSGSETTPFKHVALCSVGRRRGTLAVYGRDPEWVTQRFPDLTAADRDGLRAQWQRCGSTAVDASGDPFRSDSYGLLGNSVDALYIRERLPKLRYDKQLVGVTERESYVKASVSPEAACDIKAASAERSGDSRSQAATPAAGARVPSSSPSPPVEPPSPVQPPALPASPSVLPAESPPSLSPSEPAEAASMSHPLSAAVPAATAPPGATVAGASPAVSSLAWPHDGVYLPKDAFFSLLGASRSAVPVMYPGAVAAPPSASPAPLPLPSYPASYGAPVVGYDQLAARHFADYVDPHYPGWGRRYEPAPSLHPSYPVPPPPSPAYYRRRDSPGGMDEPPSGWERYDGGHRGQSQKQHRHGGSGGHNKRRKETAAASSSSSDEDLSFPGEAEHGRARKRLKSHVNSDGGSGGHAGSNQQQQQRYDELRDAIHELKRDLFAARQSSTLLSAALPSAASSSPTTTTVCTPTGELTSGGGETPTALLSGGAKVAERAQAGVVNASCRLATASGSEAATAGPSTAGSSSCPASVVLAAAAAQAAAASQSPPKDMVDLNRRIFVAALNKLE

[2] = system: MRC5; experiment: Compound was tested for cytotoxicity in MRC-5 cells using XTT assay; format: functional; conditions: Homo sapiens, read-out: TC50 (the source's name)
[3] = biological target: T2, Capsid scaffolding protein (Human herpesvirus 2 (strain HG52) (HHV-2) (Human herpes simplex virus2), UniProt P89449); experiment: Inhibitory activity against herpes simplex virus protease (HSV-2); format: functional, Human alphaherpesvirus 2
T2 sequence (P89449 whole entry): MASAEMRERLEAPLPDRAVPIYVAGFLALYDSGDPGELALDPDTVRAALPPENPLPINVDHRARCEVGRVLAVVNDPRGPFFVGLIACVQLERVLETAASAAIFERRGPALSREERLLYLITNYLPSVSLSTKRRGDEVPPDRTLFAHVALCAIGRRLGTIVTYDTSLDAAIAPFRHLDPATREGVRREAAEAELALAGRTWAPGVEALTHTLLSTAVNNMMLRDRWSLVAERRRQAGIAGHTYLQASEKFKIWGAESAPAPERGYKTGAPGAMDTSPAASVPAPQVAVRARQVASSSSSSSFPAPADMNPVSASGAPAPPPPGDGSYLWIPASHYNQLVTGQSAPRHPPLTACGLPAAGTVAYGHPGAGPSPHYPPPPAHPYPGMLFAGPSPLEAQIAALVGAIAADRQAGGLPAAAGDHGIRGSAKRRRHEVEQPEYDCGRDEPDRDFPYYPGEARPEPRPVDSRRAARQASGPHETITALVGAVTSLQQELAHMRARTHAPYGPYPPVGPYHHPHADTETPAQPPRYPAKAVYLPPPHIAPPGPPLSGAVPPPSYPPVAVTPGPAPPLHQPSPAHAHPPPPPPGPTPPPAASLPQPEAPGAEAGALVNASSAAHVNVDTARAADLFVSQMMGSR

SMILES | IC50 [1] [µM] | CC50 [2] [µM] | IC50 [3] [µM]
CC(=O)/C=C/C(=O)N[C@@H](C)c1nc2scc(C)c2c(=O)o1 | 0.37 | 11 | 0.79
Cc1csc2nc([C@H](C)NC(=O)CCC(=O)c3cccs3)oc(=O)c12 | 19 |  | 4.7
Cc1csc2nc([C@H](C)NC(=O)/C=C/C(=O)c3ccc(Cl)cc3)oc(=O)c12 | 0.06 |  | 15
COc1cccc(C(=O)/C=C/C(=O)N[C@@H](C)c2nc3scc(C)c3c(=O)o2)c1 | 0.029 |  | 0.68
CCOc1ccc(C(=O)/C=C/C(=O)N[C@@H](C)c2nc3scc(C)c3c(=O)o2)cc1 | 0.26 |  | 16
Cc1csc2nc([C@H](C)NC(=O)/C=C/C(=O)c3cccc(C#N)c3)oc(=O)c12 | 0.041 |  | 2
Cc1csc2nc([C@H](C)NC(=O)/C=C/C(=O)c3ccccc3)oc(=O)c12 | 0.03 | 14 | 2.7
Cc1csc2nc([C@H](C)NC(=O)/C=C/C(=O)c3cccc([N+](=O)[O-])c3)oc(=O)c12 | 0.031 |  | 3
Cc1csc2nc([C@H](C)NC(=O)/C=C/C(=O)c3cccs3)oc(=O)c12 | 0.029 | 2 | 4.6
Cc1csc2nc([C@H](C)NC(=O)/C=C/C(=O)Nc3ccccc3)oc(=O)c12 | 2.3 |  | 2.6
Cc1csc2nc([C@H](C)NC(=O)CCC(=O)c3ccccc3)oc(=O)c12 | 21 |  | 12
Cc1csc2nc([C@H](C)NC(=O)/C=C/C(=O)c3ccccc3[N+](=O)[O-])oc(=O)c12 | 0.014 |  | 2.2

— ChEMBL document CHEMBL1132681, “Inhibition of human cytomegalovirus protease by enedione derivatives of thieno[2,3-d]oxazinones through a novel dual acylation/alkylation mechanism” (Bioorg Med Chem Lett, 1999)
